Data: paper PMC10298512, “Synthesis and Anticancer Evaluation of Novel 7-Aza-Coumarine-3-Carboxamides” (International Journal of Molecular Sciences, 2023)
Like-named read-outs stand apart in the source and are kept apart here.

What was measured:
Chang liver = test: MTT cytotoxicity test, normal Chang liver cells; assay type: cell-based, human; conditions: 24 h incubation, tested at 1–100 µM, three independent experiments, read-out: IC50 (µM) Normal Cell Lines Chang Liver
M-HeLa = test: MTT cytotoxicity test, M-HeLa cells; assay type: cell-based, human; conditions: 24 h incubation, tested at 1–100 µM, three independent experiments, read-out: IC50 (µM) Cancer Cell Lines M-HeLa
HuTu 80 = test: MTT cytotoxicity test, HuTu 80 cells; assay type: cell-based, human; conditions: for IC50: MTT test, 24 h incubation, tested at 1–100 µM, three independent experiments, read-out: IC50 (µM) Cancer Cell Lines HuTu 80; for selectivity index, SI = IC50(Chang liver)/IC50(HuTu 80): normal Chang liver vs HuTu 80

Row | SMILES | melting point | IC50 (Chang liver; Homo sapiens, Chang liver) | IC50 (M-HeLa; Homo sapiens, M-HeLa) | IC50 (HuTu 80; Homo sapiens, HuTu80) | selectivity index, SI = IC50(Chang liver)/IC50(HuTu 80) (HuTu 80) | IC50 (Chang liver) | IC50 (M-HeLa) | IC50 (HuTu 80)
1 | Cc1ncc(COP(=O)(O)O)c2cc(C(=O)O)c(=O)oc12 [3b, 8-methyl-2-oxo-5-((phosphonooxy)methyl)-2H-pyrano[2,3-c]pyridin-7-ium-3-carboxylate] | > 300 °C | 70 ± 5.6 µM | 70.6 ± 5.7 µM | 60.5 ± 5.3 µM |  |  |  | 
2 | O=c1[nH]cc(F)c(=O)[nH]1 [5-fluorouracil, reference compound] |  | 86.3 ± 6.5 µM | 62 ± 4.7 µM | 65.2 ± 5.4 µM |  |  |  | 
3 | Cc1ncc(CCl)c2cc(C(=O)Nc3ccc([N+](=O)[O-])cc3Br)c(=O)oc12 [7c, N-(2-Bromo-4-nitrophenyl)-5-(chloromethyl)-8-methyl-2-oxo-2H-pyrano[2,3-c]pyridine-3-carboxamide] | 240 °C (dec.) | 89.4 ± 6.3 µM | 67.4 ± 4.6 µM | 43 ± 3.5 µM |  |  |  | 
4 | Cc1ncc(CCl)c2cc(C(=O)Nc3cccnc3N)c(=O)oc12 [7e, N-(2-Aminopyridin-3-yl)-5-(chloromethyl)-8-methyl-2-oxo-2H-pyrano[2,3-c]pyridine-3-carboxamide] | > 300 °C | 55.3 ± 3.7 µM | 54.3 ± 3.6 µM | 72 ± 5.2 µM |  |  |  | 
5 | Cc1ncc(CCl)c2cc(C(=O)N(c3ccccc3)c3ccccc3)c(=O)oc12.Cl [7f, 5-(Chloromethyl)-3-(diphenylcarbamoyl)-8-methyl-2-oxo-2H-pyrano[2,3-c]pyridin-7-ium chloride] | 201 to 205 °C | 48.4 ± 3.3 µM | 32 ± 2.2 µM | 17.4 ± 1.3 µM |  |  |  | 
6 | CC(=O)NS(=O)(=O)c1ccc(NC(=O)c2cc3c(CCl)cnc(C)c3oc2=O)cc1 [7i, N-(4-(N-Acetylsulfamoyl)phenyl)-5-(chloromethyl)-8-methyl-2-oxo-2H-pyrano[2,3-c]pyridine-3-carboxamide] | > 300 °C | 116 ± 8.1 µM | 77.8 ± 5.4 µM | 31 ± 1.9 µM |  |  |  | 
7 | Cc1ccnc(NS(=O)(=O)c2ccc(NC(=O)c3cc4c(CCl)cnc(C)c4oc3=O)cc2)n1 [7k, 5-(Chloromethyl)-8-methyl-N-(4-(N-(4-methylpyrimidin-2-yl)sulfamoyl)phenyl)-2-oxo-2H-pyrano[2,3-c]pyridine-3-carboxamide] | > 300 °C | 61.3 ± 4.2 µM | 47 ± 3.1 µM | 18.1 ± 1.4 µM |  |  |  | 
8 | Cc1cc(C)nc(NS(=O)(=O)c2ccc(NC(=O)c3cc4c(CCl)cnc(C)c4oc3=O)cc2)n1 [7l, 5-(Chloromethyl)-N-(4-(N-(4,6-dimethylpyrimidin-2-yl)sulfamoyl)phenyl)-8-methyl-2-oxo-2H-pyrano[2,3-c]pyridine-3-carboxamide] | > 300 °C | 126 ± 8.8 µM | 62.4 ± 4.4 µM | 52.1 ± 3.4 µM |  |  |  | 
9 | Cc1ncc(CCl)c2cc(C(=O)Nc3ccccc3NC(=O)c3cc4c(CCl)cnc(C)c4oc3=O)c(=O)oc12 [7o, N,N′-(1,2-Phenylene)bis(5-(chloromethyl)-8-methyl-2-oxo-2H-pyrano[2,3-c]pyridine-3-carboxamide)] | 239 to 241 °C | 11.8 ± 0.9 µM | 22.5 ± 1.8 µM | 3.1 ± 0.2 µM | 3.8 |  |  | 
10 | Cc1ncc(CO)c2cc(C(=O)O)c(=O)oc12.NC1CCCCC1 [8b, Cyclohexanaminium 5-(hydroxymethyl)-8-methyl-2-oxo-2H-pyrano[2,3-c]pyridine-3-carboxylate] |  |  |  |  |  | 81 ± 6.5 µM | 70.4 ± 5.7 µM | 78.2 ± 6.3 µM
11 | Cc1ncc(CO)c2cc(C(=O)O)c(=O)oc12.Cc1ncc(CO)c2cc(C(=O)O)c(=O)oc12.Nc1cccc(N)n1 [8d, Pyridine-2,6-diaminium 5-(hydroxymethyl)-8-methyl-2-oxo-2H-pyrano[2,3-c]pyridine-3-carboxylate] |  |  |  |  |  | 64.1 ± 5.1 µM | > 100 µM | 88.4 ± 7 µM
12 | Cc1ncc(COP(=O)(O)O)c2cc(C(=O)O)c(=O)oc12.Nc1ccccn1 [8e, Pyridin-2-aminium 8-methyl-2-oxo-5-((phosphonooxy)methyl)-2H-pyrano[2,3-c]pyridine-3-carboxylate] |  |  |  |  |  | 78.4 ± 6.3 µM | 99.5 ± 7.1 µM | 59 ± 4.1 µM
13 | COc1cccc2c1C(=O)c1c(O)c3c(c(O)c1C2=O)C[C@@](O)(C(=O)CO)C[C@@H]3O[C@H]1C[C@H](N)[C@H](O)[C@H](C)O1 [Doxorubicin, reference compound] |  | 3 ± 0.1 µM | 3 ± 0.2 µM | 3 ± 0.2 µM | 1 |  |  | 

Further lines, with some results ahead:

Row | melting point | SMILES | IC50 (Chang liver; Homo sapiens, Chang liver) | IC50 (M-HeLa; Homo sapiens, M-HeLa) | IC50 (HuTu 80; Homo sapiens, HuTu80) | selectivity index, SI = IC50(Chang liver)/IC50(HuTu 80) (HuTu 80) | IC50 (Chang liver) | IC50 (M-HeLa) | IC50 (HuTu 80)
14 | 249 to 250 °C | Cc1ncc(CO)c2cc(C(=O)O)c(=O)oc12 [3a, 5-(hydroxymethyl)-8-methyl-2-oxo-2H-pyrano[2,3-c]pyridin-7-ium-3-carboxylate] | 58 ± 4.7 µM | 75.5 ± 6 µM | 57.6 ± 4.6 µM |  |  |  | 
15 | 240 °C (dec.) | Cc1ncc(CCl)c2cc(C(=O)Nc3ccccc3)c(=O)oc12 [7a, 5-(Chloromethyl)-8-methyl-2-oxo-N-phenyl-2aH-pyrano[2,3-c]pyridine-3-carboxamide] | 56.6 ± 4.5 µM | > 100 µM | 59.4 ± 4.8 µM |  |  |  | 
16 | 214 to 215 °C | COc1ccccc1NC(=O)c1cc2c(CCl)cnc(C)c2oc1=O [7b, 5-(Chloromethyl)-N-(2-methoxyphenyl)-8-methyl-2-oxo-2H-pyrano[2,3-c]pyridine-3-carboxamide] | 46 ± 3.2 µM | 84.4 ± 5.5 µM | 55.3 ± 3.9 µM |  |  |  | 
17 | > 300 °C | Cc1ncc(CCl)c2cc(C(=O)Nc3ccccn3)c(=O)oc12 [7d, 5-(Chloromethyl)-8-methyl-2-oxo-N-(pyridin-2-yl)-2H-pyrano[2,3-c]pyridine-3-carboxamide] | 88 ± 6.2 µM | 84 ± 5.9 µM | 62 ± 4.3 µM |  |  |  | 
18 | 161 °C (dec.) | C#CCNC(=O)c1cc2c(CCl)cnc(C)c2oc1=O [7g, 5-(Chloromethyl)-8-methyl-2-oxo-N-(prop-2-yn-1-yl)-2H-pyrano[2,3-c]pyridine-3-carboxamide] | 13.9 ± 0.3 µM | 14.1 ± 1.2 µM | 11.2 ± 0.9 µM |  |  |  | 
19 | > 300 °C | Cc1ncc(CCl)c2cc(C(=O)Nc3ccc(S(N)(=O)=O)cc3)c(=O)oc12 [7h, 5-(Chloromethyl)-8-methyl-2-oxo-N-(4-sulfamoylphenyl)-2H-pyrano[2,3-c]pyridine-3-carboxamide] | 29.8 ± 2 µM | 14.8 ± 1.3 µM | 2.9 ± 0.2 µM | 10 |  |  | 
20 | > 300 °C | Cc1ncc(CCl)c2cc(C(=O)Nc3ccc(S(=O)(=O)Nc4ncccn4)cc3)c(=O)oc12 [7j, 5-(Chloromethyl)-8-methyl-2-oxo-N-(4-(N-(pyrimidin-2-yl)sulfamoyl)phenyl)-2H-pyrano[2,3-c]pyridine-3-carboxamide] | 73 ± 5.5 µM | 73.4 ± 5.2 µM | 32 ± 2.1 µM |  |  |  | 
21 | 240 °C (dec.) | Cc1ncc(CCl)c2cc(C(=O)NNC(=O)c3ccccc3)c(=O)oc12 [7m, N′-Benzoyl-5-(chloromethyl)-8-methyl-2-oxo-2H-pyrano[2,3-c]pyridine-3-carbohydrazide] | 62.4 ± 4.9 µM | 61.1 ± 4.2 µM | 49.7 ± 3.5 µM |  |  |  | 
22 | > 300 °C | Cc1ncc(CCl)c2cc(C(=O)NNC(=O)c3ccncc3)c(=O)oc12 [7n, 5-(Chloromethyl)-N′-isonicotinoyl-8-methyl-2-oxo-2H-pyrano[2,3-c]pyridine-3-carbohydrazide] | 64.1 ± 4.8 µM | 93.1 ± 6.6 µM | 61.2 ± 4.2 µM |  |  |  | 
23 | 274 °C (dec.) | Cc1ncc(CCl)c2cc(C(=O)Nc3cccc(NC(=O)c4cc5c(CCl)cnc(C)c5oc4=O)c3)c(=O)oc12 [7p, N,N′-(1,3-Phenylene)bis(5-(chloromethyl)-8-methyl-2-oxo-2H-pyrano[2,3-c]pyridine-3-carboxamide)] | 37 ± 2.6 µM | 63 ± 4.4 µM | 81.5 ± 5.7 µM |  |  |  | 
24 | 219 to 224 °C | Cc1ncc(CO)c2c1OC1=C(C(=O)CC(C)(C)C1)C2C1=C(O)CC(C)(C)CC1=O (stereo not shown) [compound 4, 5-(2-hydroxy-4,4-dimethyl-6-oxocyclohex-1-en-1-yl)-4-(hydroxymethyl)-1,8,8-trimethyl-5,7,8,9-tetrahydro-6H-chromeno[2,3-c]pyridin-6-one] |  |  |  |  |  |  | 
